Measurements published in ChEMBL document CHEMBL3822417, “Predictive proteochemometric models for kinases derived from 3D protein field-based descriptors” (Medchemcomm, 2016).

Tests used:
[1] = biological target: Serine/threonine-protein kinase 10 (Homo sapiens, UniProt O94804); assay: Inhibition of STK10 (unknown origin)
[2] = biological target: RAC-beta serine/threonine-protein kinase (Homo sapiens, UniProt P31751); assay: Inhibition of AKT2 (unknown origin)
Chain of RAC-beta serine/threonine-protein kinase (P31751 whole entry): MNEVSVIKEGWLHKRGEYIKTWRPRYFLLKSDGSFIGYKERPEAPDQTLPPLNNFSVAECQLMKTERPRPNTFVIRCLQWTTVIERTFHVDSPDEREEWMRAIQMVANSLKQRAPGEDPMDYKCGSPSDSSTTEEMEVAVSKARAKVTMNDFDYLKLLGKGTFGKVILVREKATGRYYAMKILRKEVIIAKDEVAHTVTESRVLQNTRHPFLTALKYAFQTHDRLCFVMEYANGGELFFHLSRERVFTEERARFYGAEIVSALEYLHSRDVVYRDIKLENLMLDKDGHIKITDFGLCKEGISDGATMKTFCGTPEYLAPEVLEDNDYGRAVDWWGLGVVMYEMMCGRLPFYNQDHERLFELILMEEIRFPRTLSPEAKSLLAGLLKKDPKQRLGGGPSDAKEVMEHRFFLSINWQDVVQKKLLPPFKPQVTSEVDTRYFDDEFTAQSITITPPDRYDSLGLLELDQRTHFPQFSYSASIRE

Chain of Serine/threonine-protein kinase 10 (O94804 whole entry): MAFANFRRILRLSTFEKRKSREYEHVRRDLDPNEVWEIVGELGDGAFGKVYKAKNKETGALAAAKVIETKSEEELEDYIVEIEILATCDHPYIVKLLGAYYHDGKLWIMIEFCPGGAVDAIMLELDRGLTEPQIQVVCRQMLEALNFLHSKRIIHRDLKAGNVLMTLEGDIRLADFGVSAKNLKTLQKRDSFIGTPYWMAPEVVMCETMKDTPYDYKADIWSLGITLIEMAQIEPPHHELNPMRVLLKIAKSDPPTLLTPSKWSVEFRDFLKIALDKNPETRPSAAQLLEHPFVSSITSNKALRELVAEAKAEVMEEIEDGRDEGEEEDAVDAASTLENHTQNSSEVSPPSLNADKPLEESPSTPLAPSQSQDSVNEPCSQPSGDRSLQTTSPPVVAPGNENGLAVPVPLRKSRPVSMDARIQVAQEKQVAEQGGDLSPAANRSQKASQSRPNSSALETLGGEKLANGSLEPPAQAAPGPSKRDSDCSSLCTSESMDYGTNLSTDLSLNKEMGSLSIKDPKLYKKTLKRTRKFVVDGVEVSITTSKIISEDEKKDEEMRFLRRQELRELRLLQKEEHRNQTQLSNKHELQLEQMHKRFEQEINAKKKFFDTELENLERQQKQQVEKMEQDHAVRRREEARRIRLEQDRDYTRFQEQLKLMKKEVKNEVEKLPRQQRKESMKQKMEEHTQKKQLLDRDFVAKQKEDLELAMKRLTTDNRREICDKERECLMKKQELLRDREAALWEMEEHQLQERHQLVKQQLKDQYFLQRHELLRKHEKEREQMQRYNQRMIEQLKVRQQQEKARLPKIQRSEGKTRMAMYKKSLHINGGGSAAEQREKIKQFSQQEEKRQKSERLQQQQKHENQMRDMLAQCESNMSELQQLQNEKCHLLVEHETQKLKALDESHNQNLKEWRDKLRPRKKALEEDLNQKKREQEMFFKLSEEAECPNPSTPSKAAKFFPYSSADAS

| SMILES | Ki [1] | Ki [2] |
| --- | --- | --- |
| Oc1ccc(-c2nc(-c3ccncc3)c(-c3ccc(F)cc3)[nH]2)cc1 [SB-202190] | > 10 µM | – |
| COc1cc(N2CCC(N3CCN(C)CC3)CC2)ccc1Nc1ncc(Cl)c(Nc2ccccc2S(=O)(=O)C(C)C)n1 [TAE-684] | – | > 10 µM |
